Source: patent US5631279A, “Perhydroisoindole derivatives, preparation thereof and pharmaceutical compositions containing same” (Rhone-Poulenc Rorer, S.A., priority 1993, dated 1997)

System: rabbit pulmonary artery
Experiment: Antagonism of rabbit pulmonary artery contractions induced by [Lys5 MeLeu9 Nle10]NKA(4-10)
Design: species or system rabbit (male, New Zealand albino)
Conditions: product incubated for 2 hours; [Lys5 MeLeu9 Nle10]NKA(4-10) as agonist; Krebs solution 37° C.
Protocol: The in vitro antagonistic activity of the products is determined with respect to rabbit pulmonary artery contractions induced by [Lys^5 MeLeu^9 Nle^10 ]NKA(4-10) according to the technique described by D. Regoli et al., Trends Pharmacol. Sci, 2, 290-295 (1988) and P. D'Orleans-Juste et al., Eur. J. Pharmacol., 125, 37-44 (1985). The pulmonary artery of the rabbit (male, New Zealand albino) is withdrawn; the endothelium is destroyed by introduction into the arterial lumen of a glass rod coated with filter paper, and the artery is then cut into rings and incubated in an isolated-organ tank containing an oxygenated Krebs solution (95% O2; 5% CO2) at 37° C. at a tension of 1 g. After determining the agonistic activity of [Lys^5 MeLeu9Nle^10 ]NKA(4-10) (contractile effect), the product to be studied is incubated for 2 hours in the isolated-organ tank before a further addition of [Lys^5 MeLeu^9 Nle^10 ]NKA(4-10). The percentage inhibition obtained is calculated. The antagonistic activity of a product is expressed in terms of IC^50.
In the above technique, the products studied display an antagonism to rabbit pulmonary artery contractions at the following concentration: […]

IC50: 215 nM
SMILES: COc1ccccc1[C@@]1(O)[C@H](O)CC(c2ccccc2)(c2ccccc2)[C@@H]2CN(C(=O)Cc3c[nH]c4ccccc34)C[C@@H]21 [Example 1]
